Test results published in article PMC3314689, “Characterization of Cholinesterases in Plasma of Three Portuguese Native Bird Species: Application to Biomonitoring” (PLoS ONE, 2012).
Where two headings read alike, the source gives them in different places.

Key:
Assay in all cases: Ellman microplate assay, Michaelis-Menten fit
Conditions in all cases: apparent, diluted plasma, 0.1 M phosphate pH 7.2, mean of 3 individuals
[1] = test system: T1, plasma ChE / plasma BChE of C. ciconia; type: biochemical
T1 construct: native enzyme in diluted EDTA plasma, not purified
Text: Ellman microplate assay, Michaelis-Menten fit on plasma ChE / plasma BChE of C. ciconia

[2] = test system: T2, plasma ChE / plasma BChE of A. cinerea; type: biochemical, Ardea cinerea
T2 construct: native enzyme in diluted EDTA plasma, not purified
Text: Ellman microplate assay, Michaelis-Menten fit on plasma ChE / plasma BChE of A. cinerea

[3] = test system: T3, plasma ChE / plasma BChE of M. bassanus; type: biochemical, Morus bassanus
T3 construct: native enzyme in diluted EDTA plasma, not purified
Text: Ellman microplate assay, Michaelis-Menten fit on plasma ChE / plasma BChE of M. bassanus

SMILES: CC(=O)SCC[N+](C)(C)C [acetylthiocholine iodide]
- Km ([1]; read-out: AcSCh / Km): 10.7 µM
- Km ([2]; read-out: AcSCh / Km): 247 µM
- Km ([3]; read-out: AcSCh / Km): 15.3 µM

SMILES: CCC(=O)SCC[N+](C)(C)C [propionylthiocholine iodide]
- Km ([1]; read-out: PrSCh / Km): 6.1 µM
- Km ([2]; read-out: PrSCh / Km): 150 µM
- Km ([3]; read-out: PrSCh / Km): 21.4 µM

SMILES: CCCC(=O)SCC[N+](C)(C)C [S-butyrylthiocholine iodide]
- Km ([1]; read-out: BuSCh / Km): 4.8 µM
- Km ([2]; read-out: BuSCh / Km): 167 µM
- Km ([3]; read-out: BuSCh / Km): 19.4 µM
